{"source": "patent US20230256051A1", "about": "“MODIFIED KISSPEPTIN RECEPTOR AGONISTS FOR FATTY LIVER DISEASE” (priority 2020, published 2023)", "key": {"[1]": {"system": "HFD-fed C57BL6/J mice (mouse model of NAFLD)", "assay": "Diet-induced (HFD) mouse model of NAFLD, TAK-448 infused by subcutaneous mini-osmotic pump", "type": "in vivo", "conditions": "for liver steatosis / lipid accumulation (H&E, Oil Red O): 0.3 nmol/hour s.c. mini-osmotic pump, vs vehicle (PBS); for liver steatosis / lipid accumulation (H&E, Oil Red O) / insulin resistance / sensitivity (ITT) / glucose tolerance (GTT) / fasting glucose / body weight: 4 weeks; for insulin resistance / sensitivity (ITT) / glucose tolerance (GTT) / fasting glucose / body weight: 0.3 nmol/hour s.c. pump; for insulin resistance / sensitivity (ITT): 6 h fast, insulin 0.5 U/kg i.p.; for glucose tolerance (GTT): 12 h fast, D-glucose 1 g/kg i.p.; for liver triglycerides (TGs) / serum/blood glycerol: endpoint", "method": "Animals were treated for 4 weeks unless otherwise indicated and maintained on RD or HFD (total of 10 weeks). Blood glucose measurements were obtained via a small nick in the lateral tail vein using a glucometer (Bayer ContourTM). For glucose tolerance tests, mice were fasted for 12 hours and then injected intraperitoneally with D-glucose (1 g/kg). For the insulin tolerance tests, mice were fasted for 6 hours and then injected intraperitoneally with insulin (0.5 U/kg; Novo NordiskTM). Mice where individually housed in an 8-chamber Clinical Laboratory Animal Monitoring System (CLAMS) with controlled light and feeding. Carbon dioxide output, oxygen update, respiratory exchange ratio (RER), ambulatory movement, and feeding were measured over a 4-day period. Serum insulin levels were measured using the Ultra-Sensitive Mouse Insulin ELISA Kit (Crystal ChemTM). Serum glycerol levels were measured using the Glycerol Assay Kit (SigmaTM). Liver triglycerides were measured using the triglyceride quantification kit (MBLTM international Catalog # JM-K622-500). Free fatty acids were measured using the Free Fatty Acid Quantification Kit (SigmaTM, […]). ALT levels were measured using Liquid ALT (SGPT) Reagent set according to the manufacturer's instructions; cholesterol levels were measured using the Cholesterol set according to the manufacturer's instructions. Immunoblot assays were conducted according to known methods. Mouse liver tissue or primary hepatocytes were homogenized in RIPA lysis buffer containing protease inhibitors and centrifuged at 4° C.; the protein expression in lysates was analyzed by Western blot analysis. Protein was separated using SDS-PAGE and probed using the following antibodies: […] Mouse anti-β actin (1:5000, Thermo Fisher ScientificTM) or anti-vinculin (1:1000, Bio-RadTM) were used for loading control. Protein was then incubated for 1 hour in horseradish peroxidase (HRP)-conjugated rabbit (1:2500, Cell Signaling TechnologyTM) or mouse (1:2500, Cell Signaling TechnologyTM) secondary antibody. Blots were imaged by chemiluminescence with ChemiDocTM Touch imaging system (Bio-RadTM), SuperSignal and West Dura Extended Duration Substrate (Thermo ScientificTM). Protein levels were quantified using Image Lab Software (Bio-RadTM). Total RNA was extracted from cells using the Trizol method. Reverse transcription was done according to manufacturer's instructions using iScript RT Supermix (Bio-RadTM). Gene expression was determined using SYBR green real-time qPCR (RT-qPCR) as described previously using primers shown in Table 7, below. The following primers were purchased from BioRadTM (validated […] primers): Srebpl, Aqp3, Aqp9, Gpat2, Agpat2, Dgat1, Dgat2, Mogat1, Slc2a2, […]1, Sod1, Sod2, Gss, Ucp2, and Gpam. Il-13 was purchased from QiagenTM (QT00099554). Primers for Srebf1, Aqp3, Aqp9, Gpat2, Agpat2, Dgat1, Dgat2, Mogat1, Slc2a2, Lgpat1, Sod1, Sod2, Gss, Ucp2, and Gpam are pre-made and were purchased from BioRadTM. Liver tissue was immediately fixed in 10% neutral formalin after mice were euthanized. Tissue was processed for histology by the Research Pathology Services at Rutgers University. Livers were sectioned into 5 μm thick sections and stained with hematoxylin and eosin. Sections were examined by light microscopy for histopathological changes. C57BL/6J mice fed high fat diet (HFD) or control regular diet (RD) for 12 weeks (4-5/group). TAK-448 (TAK) or Vehicle (Veh i.e., PBS controls) were administered for 4 weeks using an ALZET mini-osmotic pump implanted subcutaneously. Steatosis is shown by hematoxylin and eosin stained mouse livers (lipid accumulation, small white droplets, arrowheads) and by Oil Red O staining of lipids (red dots) in control livers (FIG. 1A). This was prevented in the TAK-448 treated group (FIG. 1A). […]"}, "[2]": {"conditions": "cited from earlier work"}, "[3]": {"system": "primary mouse hepatocytes", "assay": "FFA-loaded isolated primary mouse hepatocytes treated with KP-10 or TAK", "conditions": "KP 100 nM or TAK 3 nM; 150 µM palmitate and 150 µM oleate; wild-type hepatocytes; n=4", "quoted_text": "(n=4) * p < 0.05; One-way ANOVA followed by Dunnett’s post-hoc test.\nPrimary hepatocytes from mice were isolated according to known methods. Mice (wild-type, C57BL6) or LKO and littermate controls were anesthetized using a ketamine/xylazine mixture (Henry Schein™). The liver was cannulated via the hepatic portal vein and first perfused with 37° C. Kreb’s Ringer solution containing EGTA for 10 minutes. After the first wash, a second Kreb’s Ringer solution containing CaCl2 and LIBERASE (Roche™) was used until the liver was thoroughly perfused. Hepatocytes were filtered through a gauze mesh and resuspended in William’s Media E (Sigma™) with 10 % FBS (Sigma™), 200 nM dexamethasone (Sigma™), 5 mM pen/strep (Fisher™), 2 mM L-glutamine (Fisher™). Cells were plated at a density of 3 × 10^5 on 6-well collagen-coated plates (Sigma™). Hepatocytes were left to recover overnight and then were serum starved for 3 hours prior to experiments. For free fatty acid (FFA) loading, 150 µM oleic and 150 µM palmitic acid was conjugated with 2% BSA (0.3 mM)."}, "[4]": {"conditions": "HFD livers, RT-qPCR, vs vehicle"}, "[5]": {"conditions": "HFD livers, RT-qPCR, vs vehicle, listed as TAK"}, "[6]": {"conditions": "HFD livers, western blot, vs vehicle"}, "[7]": {"conditions": "HFD mice, vs vehicle, listed as TAK"}, "[8]": {"conditions": "HFD mice, 4 weeks treatment, vs vehicle"}, "[9]": {"conditions": "HFD mice, 4 weeks treatment, vs vehicle, listed as TAK"}, "[10]": {"conditions": "HFD mice, 4 weeks treatment, vs vehicle, listed as TAK-488"}, "[11]": {"conditions": "treated vs untreated mice, 4 weeks post treatment"}}, "note": "Entries after “also recorded” stand apart in the source; their conditions may differ."}
{"compound": "CNC(=N)NCCC[C@H](NC(=O)[C@H](CC(C)C)NC(=O)NNC(=O)[C@H](Cc1ccccc1)NC(=O)[C@@H](NC(=O)[C@H](CC(N)=O)NC(=O)[C@@H]1C[C@@H](O)CN1C(=O)[C@@H](Cc1ccc(O)cc1)NC(C)=O)[C@@H](C)O)C(=O)N[C@@H](Cc1c[nH]c2ccccc12)C(N)=O.O=C(O)C(F)(F)F", "note": "[TAK-448]", "values": [{"measurement": "hepatic expression of PPARy, CD36 and MOGAT1", "setting": "[1]; HFD livers, RT-qPCR and western blot, vs vehicle, listed as TAK", "result": "significantly reduced; also recorded: inhibited"}, {"measurement": "Gpam expression in liver", "setting": "[1]; [4]", "result": "significantly reduced"}, {"measurement": "Lfabp1 and Gyk1 expression in liver", "setting": "[1]; [4]", "result": "not significant"}, {"measurement": "Srebf1 expression in liver", "setting": "[1]; [4]", "result": "not significant"}, {"measurement": "liver markers for oxidative stress (Ucp2, Gss)", "setting": "[1]; [4]", "result": "lower levels"}, {"measurement": "liver markers for fibrosis (Tgfb1, Timp1)", "setting": "[1]; [5]", "result": "lower levels; also recorded: reduction"}, {"measurement": "liver pro-inflammatory markers (Ip10, Mcp1)", "setting": "[1]; [5]", "result": "lower levels; also recorded: reduction"}, {"measurement": "Fasn expression in liver", "setting": "[1]; [6]", "result": "significant decrease"}, {"measurement": "phosphorylation of AMPK in liver", "setting": "[1]; [6]", "result": "induced phosphorylation"}, {"measurement": "liver steatosis / lipid accumulation (H&E, Oil Red O)", "setting": "[1]; HFD mice", "result": "prevented"}, {"measurement": "liver steatosis / lipid accumulation (H&E, Oil Red O)", "setting": "[1]; HFD mice, listed as TAK", "result": "protected against; also recorded: suppressed"}, {"measurement": "insulin resistance / sensitivity (ITT)", "setting": "[1]; HFD mice, vs vehicle", "result": "protected against; also recorded: prevented insulin resistance"}, {"measurement": "insulin resistance / sensitivity (ITT)", "setting": "[1]; [7]", "result": "insulin sensitive; also recorded: improved"}, {"measurement": "glucose tolerance (GTT)", "setting": "[1]; HFD mice, vs vehicle", "result": "prevented glucose intolerance"}, {"measurement": "glucose tolerance (GTT)", "setting": "[1]; [7]", "result": "glucose tolerant; also recorded: improved"}, {"measurement": "fasting glucose", "setting": "[1]; HFD mice, vs vehicle", "result": "prevented the rise"}, {"measurement": "body weight", "setting": "[1]; [7]", "result": "significantly lower; also recorded: prevented a gain"}, {"measurement": "fasting glucose", "setting": "[1]; [7]", "result": "lower"}, {"measurement": "body weight", "setting": "[1]; HFD mice, vs vehicle, listed as TAK-488", "result": "lowering"}, {"measurement": "food intake (CLAMS)", "setting": "[1]; HFD mice, 4 weeks post treatment, vs vehicle", "result": "without a change"}, {"measurement": "food intake (CLAMS)", "setting": "[1]; HFD mice, 4 weeks post treatment, vs vehicle, listed as TAK", "result": "without a change; also recorded: without changing"}, {"measurement": "food intake (CLAMS)", "setting": "[1]; HFD mice, 4 weeks post treatment, vs vehicle, listed as Takeda-488", "result": "no difference"}, {"measurement": "epididymal white adipose tissue (eWAT)", "setting": "[1]; [8]", "result": "significant decrease"}, {"measurement": "inguinal white adipose tissue (iWAT)", "setting": "[1]; [8]", "result": "significant decrease"}, {"measurement": "peripheral fat accumulation / adipose mass", "setting": "[1]; [8]", "result": "protected against"}, {"measurement": "serum ALT", "setting": "[1]; [8]", "result": "significantly lower"}, {"measurement": "serum/blood free fatty acids (FFA)", "setting": "[1]; [8]", "result": "prevented"}, {"measurement": "peripheral fat accumulation / adipose mass", "setting": "[1]; [9]", "result": "lowered"}, {"measurement": "serum TGs", "setting": "[1]; [9]", "result": "significant decrease; also recorded: reduced"}, {"measurement": "serum cholesterol", "setting": "[1]; [9]", "result": "significantly lower; also recorded: reduced"}, {"measurement": "serum/blood free fatty acids (FFA)", "setting": "[1]; [9]", "result": "significantly lower; also recorded: reduced"}, {"measurement": "peripheral fat accumulation / adipose mass", "setting": "[1]; [10]", "result": "lowering"}, {"measurement": "serum/blood free fatty acids (FFA)", "setting": "[1]; [10]", "result": "lowering"}, {"measurement": "liver triglycerides (TGs)", "setting": "[1]; [8]", "result": "prevented"}, {"measurement": "serum/blood glycerol", "setting": "[1]; [8]", "result": "prevented"}, {"measurement": "liver triglycerides (TGs)", "setting": "[1]; [9]", "result": "significant decrease"}, {"measurement": "serum/blood glycerol", "setting": "[1]; [9]", "result": "significantly lower"}, {"measurement": "liver triglycerides (TGs)", "setting": "[1]; [10]", "result": "lowering"}, {"measurement": "serum/blood glycerol", "setting": "[1]; [10]", "result": "lowering"}, {"measurement": "heat production (CLAMS)", "setting": "[1]; [11]", "result": "no differences"}, {"measurement": "respiratory exchange ratio (RER, CLAMS)", "setting": "[1]; [11]", "result": "no differences"}, {"measurement": "half-life in the blood", "setting": "[2]", "result": 4, "unit": "h"}, {"measurement": "TG accumulation in FFA loaded hepatocytes", "setting": "[3]", "result": "substantially decreased"}]}
